Measurements: patent US9994528B2, “Certain amino-pyridines and amino-triazines, compositions thereof, and methods for their use” (Cytokinetics, Inc., priority 2010, dated 2018)

Tested on: rabbit skeletal myofibrils (approximately 90% fast fibers)
Experiment: Activation of fast skeletal myofibrils (PUMA coupled-enzyme ATPase assay)
Type: biochemical
Details: AC1.4 = concentration at which the compound increased the enzymatic activity by 40%; myofibril suspension at calcium level pCa25; PM12 buffer pH 6.8
In short: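 Fast skeletal myofibrils from rabbit psoas muscle (roughly 90% fast fibers) were homogenized, washed with Triton X-100 to strip membranes, and frozen in 10% sucrose at −80° C. Their calcium-regulated ATPase activity was measured at pCa25 in PM12 buffer (12 mM Pipes, 2 mM MgCl2, 1 mM DTT, pH 6.8). A pyruvate kinase/lactate dehydrogenase system coupled ADP regeneration to NADH oxidation, read at 340 nm.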

| Mean AC1.4 | Structure (SMILES) |
| --- | --- |
| C (C=10-20 uM) | COC(=O)c1ccc(F)c(-c2cnc(NCC3(c4ccccn4)CCC3)nn2)c1 [methyl 4-fluoro-3-(3-{[(2-pyridylcyclobutyl)methyl]amino}(1,2,4-triazin-6-yl))benzoate] |
| D (D=>20 uM) | COC(=O)c1ccc(F)c(-c2cnc(NC(C)(C)c3cccc(S(C)(=O)=O)c3)nn2)c1 [methyl 4-fluoro-3-[3-({1-methyl-1-[3-(methylsulfonyl)phenyl]ethyl}amino)(1,2,4-triazin-6-yl)]benzoate] |
| B (B=1-10 uM) | OCc1cnc(-c2cnc(NC[C@]3(c4ncccc4F)C[C@H](F)C3)nn2)s1 [{2-[3-({[3-fluoro-1-(3-fluoro(2-pyridyl))cyclobutyl]methyl}amino)-1,2,4-triazin-6-yl]-1,3-thiazol-5-yl}methan-1-ol] |
| C (C=10-20 uM) | OCc1cnc(-c2cnc(NCC3(c4ncccc4F)CCC3)nn2)s1 [{2-[3-({[(3-fluoro-2-pyridyl)cyclobutyl]methyl}amino)-1,2,4-triazin-6-yl]-1,3-thiazol-5-yl}methan-1-ol] |
| B (B=1-10 uM) | CNC(=O)c1ccc(F)c(-c2cnc(NCC3(c4ncccc4Cl)CC(F)(F)C3)nn2)c1 [{3-[3-({[1-(3-chloro(2-pyridyl))-3,3-difluorocyclobulyl]methyl}amino)(1,2,4-triazin-6-yl)]-4-fluorophenyl}-N-methylcarboxamide] |
| A (A=<1 uM) | CNC(=O)c1ccc(F)c(-c2cnc(NC[C@]3(c4ncccc4Cl)C[C@H](F)C3)nn2)c1 [{3-[3-({[1-(3-chloro(2-pyridyl))-3-fluorocyclobutyl]methyl}amino)(1,2,4-triazin-6-yl)]-4-fluorophenyl}-N-methylcarboxamide] |
| B (B=1-10 uM) | CNC(=O)c1cccc(-c2cnc(NC[C@]3(c4ncccc4Cl)C[C@H](F)C3)nn2)c1 [{3-[3-({[1-(3-chloro(2-pyridyl))-3-fluorocyclobutyl]methyl}amino)(1,2,4-triazin-6-yl)]phenyl}-N-methylcarboxamide] |
| B (B=1-10 uM) | CNC(=O)c1cccc(-c2cnc(NC[C@]3(c4ncccc4F)C[C@H](F)C3)nn2)c1 [{3-[3-({[3-fluoro-1-(3-fluoro(2-pyridyl))cyclobulyl]methyl}amino)(1,2,4-triazin-6-yl)]phenyl}-N-methylcarboxamide] |
| A (A=<1 uM) | CNC(=O)c1ccc(O)c(-c2cnc(NC[C@]3(c4ncccc4F)C[C@H](F)C3)nn2)c1 [{3-[3-({[3-fluoro-1-(3-fluoro(2-pyridyl))cyclobutyl]methyl}amino)(1,2,4-triazin-6-yl)]-4-hydroxyphenyl}-N-methylcarboxamide] |
| B (B=1-10 uM) | CNC(=O)c1ccc(F)c(-c2cnc(NC[C@]3(c4ncccc4F)C[C@H](F)C3)nn2)c1 [{4-fluoro-3-[3-({[3-fluoro-1-(3-fluoro(2-pyridyl))cyclobutyl]methyl}amino)(1,2,4-triazin-6-yl)]phenyl}-N-methylcarboxamide] |
| B (B=1-10 uM) | CNC(=O)c1ccc(F)c(-c2cnc(NCC3(c4ncccc4F)CCC3)nn2)c1 [{4-fluoro-3-[3-({[(3-fluoro(2-pyridyl))cyclobutyl]methyl}amino)(1,2,4-triazin-6-yl)]phenyl}-N-methylcarboxamide] |
| D (D=>20 uM) | CC(C)(Nc1ncc(-c2ncc(CN)s2)nn1)c1ncccc1Cl [{6-[5-(aminomethyl)(1,3-thiazol-2-yl)](1,2,4-triazin-3-yl)}[1-(3-chloro(2-pyridyl))-isopropyl]amine] |
| B (B=1-10 uM) | NCc1cnc(-c2cnc(NC[C@]3(c4ncccc4F)C[C@H](F)C3)nn2)s1 [{6-[5-(aminomethyl)(1,3-thiazol-2-yl)](1,2,4-triazin-3-yl)}{[3-fluoro-1-(3-fluoro(2-pyridyl))cyclobutyl]methyl}amine] |
| D (D=>20 uM) | CC(C)(Nc1ncc(-c2cc(CN)ccc2F)nn1)c1ncccc1F [{6-[5-(aminomethyl-2-fluorophenyl](1,2,4-triazin-3-yl)}[1-(3-fluoro(2-pyridyl))-isopropyl]amine] |
